The results in this text go back to EP3057951B1, “METHYLENE LINKED QUINOLINYL MODULATORS OF ROR-GAMMA-T” (Janssen Pharmaceutica NV, priority 2013, dated 2015).

Molecules are shown by their SMILES. Where a name gives a salt, the structure may show the parent alone. Read-outs that look alike come from different tables or passages of the source.

In assay [1] the target is T1, wild type human RORγt LBD (Homo sapiens, UniProt P51449).
T1 construct: expressed in transfected cells; host or cells: HEK293T
T1 sequence (P51449 258-518): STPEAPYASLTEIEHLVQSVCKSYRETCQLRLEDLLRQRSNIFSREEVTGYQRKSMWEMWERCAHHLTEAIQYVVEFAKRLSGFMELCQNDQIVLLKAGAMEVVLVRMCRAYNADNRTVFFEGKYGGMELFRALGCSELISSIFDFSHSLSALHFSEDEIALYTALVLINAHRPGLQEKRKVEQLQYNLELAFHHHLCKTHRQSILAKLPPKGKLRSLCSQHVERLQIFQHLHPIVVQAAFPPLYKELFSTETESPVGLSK
In words: RORγt (LBD) Reporter Assay (GAL4-luciferase, HEK293T cells). It counts as cell-based. To be noted: for RORγt (LBD) Reporter Assay, % inhibition @ 6 µM: 6 µM compound concentration; for inhibition at 6 µM: HEK-293T, read-out: RORγt (LBD) Reporter Assay, % inhibition @ 6 µM, 6 µM compound concentration. A general note: In a reporter assay the amount or activity of a reporter protein is the signal.

In assay [2] the target is T2, wild type human RORγt ligand binding domain (RORyt LBD) (Homo sapiens, UniProt P51449).
T2 construct: His-tag (N); TurboTEV protease cleavage site (ENLYFQG) (N); made in house; host or cells: E. coli (pHIS1, modified pET vector)
T2 sequence (P51449 258-518): T1 sequence (P51449 258-518)
In words: RORγt ThermoFluor assay (thermal shift, binding affinity KD). (In general: DSF heats the sample and reads unfolding from a dye or from intrinsic fluorescence.)

Setting [3] is: HEK293T cells, value after the comma with ∼, > or < could not be included in the average.

The term IC50 denotes the concentration that inhibits the measured activity by half. Lower therefore signals higher potency. The Kd is a measure of binding affinity in units of concentration. Consider `COc1nc2ccc(C(O)(c3ccc(C)nc3C)c3cnnn3C)cc2c(Cl)c1Cc1ccc(S(C)(=O)=O)cc1` (single isomer, unassigned) [Example 117c, (4-Chloro-2-methoxy-3-(4-(methylsulfonyl)benzyl)quinolin-6-yl)(2,6-dimethylpyridin-3-yl)(1-methyl-1H-1,2,3-triazol-5-yl)methanol], for which, in assay [1] (HEK293T cells, 6 µM), the “RORγt (LBD) Reporter Assay, % inhibition @ 6 µM” value (“RORγt … % inhibition @ 6 µM” for short) is reported as 101%. In assay [1] (HEK293T cells), half-maximal inhibition (IC50) required 52 nM. Further, the Kd in assay [2] stood at 5.5 nM.

On to `Cn1cncc1C(O)(c1ccc(Cl)cc1)c1ccc2nc(N3CCC3)c(Cc3ccc(-n4cccn4)cc3)c(Cl)c2c1` (single isomer, unassigned) [Example 138b, {2-Azetidin-1-yl-4-chloro-3-[4-(1H-pyrazol-1-yl)benzyl]quinolin-6-yl}(4-chlorophenyl)(1-methyl-1H-imidazol-5-yl)methanol], for which, in assay [1] (HEK293T cells), the IC50 amounted to 560 nM and the inhibition at 6 µM was determined as 101%. For the same compound, the Kd in assay [2] was determined as 1300 nM.

As for `CC(=O)N1CCC(C(O)(c2ccc(C(F)(F)F)nc2)c2cc(C)c3nc(C#N)c(Cc4ccc(-n5cccn5)cc4)c(C#N)c3c2)CC1` (single isomer, unassigned) [Example 79b, 3-(4-(1H-Pyrazol-1-yl)benzyl)-6-((1-acetylpiperidin-4-yl)(hydroxy)(6(trifluoromethyl)pyridin-3-yl)methyl)-8-methylquinoline-2,4-dicarbonitrile], the 50% inhibitory concentration (IC50) in assay [1] (setting [3]) was found to be 760 nM. In addition, the inhibition at 6 µM in assay [1] worked out at 92%. Moreover, in assay [2], the Kd turned out to be 580 nM.

In assay [1] (setting [3]), `COc1nc2ccc(C(N)(c3ccc(C(F)(F)F)nc3)c3cncn3C)cc2c(Cl)c1Cc1cc2ccccc2s1` (single isomer, unassigned) [Example 71b, (3-(Benzo[b]thiophen-2-ylmethyl)-4-chloro-2-methoxyquinolin-6-yl)(1-methyl-1H-imidazol-5-yl)(6-(trifluoromethyl)pyridin-3-yl)methanamine] came in with an IC50 of 230 nM. In addition, in assay [1], the inhibition at 6 µM is 96%. In addition, in assay [2], the Kd is 32 nM.

Compound `CC(=O)N1CCC(C(O)(c2cc(C)c3nc(C#N)c(Cc4ccc(-n5cccn5)cc4)c(C#N)c3c2)c2cncn2C)CC1` (single isomer, unassigned) [Example 81b, 3-(4-(1H-Pyrazol-1-yl)benzyl)-6-((1-acetylpiperidin-4-yl)(hydroxy)(1-methyl-1H-imidazol-5-yl)methyl)-8-methylquinoline-2,4-dicarbonitrile] displayed an IC50 in assay [1] (setting [3]) of 310 nM. Also, the inhibition at 6 µM in assay [1] amounted to 97%. Moreover, the Kd in assay [2] was 36 nM.

On to `Cn1cncc1C(O)(c1ccc(C(F)(F)F)nc1)c1ccc2nc(C#N)c(Cc3ccc(F)cc3)c(C#N)c2c1` (single isomer, unassigned) [Example 53b, 3-(4-Fluorobenzyl)-6-(hydroxy(1-methyl-1H-imidazol-5-yl)(6-(trifluoromethyl)pyridin-3-yl)methyl)quinoline-2,4-dicarbonitrile], for which the “RORγt … % inhibition @ 6 µM” value in assay [1] (6 µM) came out at 32%. Besides, the half-inhibitory concentration (IC50) in assay [1] (setting [3]) is > 6000 nM. The Kd in assay [2] was 1.2 nM.

In the case of `Cc1ccc(C(O)(c2ccc3nc(N4CCC4)c(Cc4ccc(C(F)(F)F)cc4)c(Cl)c3c2)c2cnnn2C)c(C)n1` (single isomer, unassigned) [Example 140b, {2-Azetidin-1-yl-4-chloro-3-[4-(trifluoromethyl)benzyl]quinolin-6-yl}(2,6-dimethylpyridin-3-yl)(1-methyl-1H-1,2,3-triazol-5-yl)methanol], in assay [1] (HEK293T cells), the half-inhibitory concentration (IC50) is ~100 nM and the inhibition at 6 µM was found to be 101%. In addition, the Kd in assay [2] came to 130 nM.

For `Cn1cc(-c2nc3ccc(C(O)(c4ccc(C(F)(F)F)nc4)c4cncn4C)cc3c(C#N)c2Cc2ccccc2)cn1` (stereo not drawn) [Example 112a, 3-Benzyl-6-(hydroxy(1-methyl-1H-imidazol-5-yl)(6-(trifluoromethyl)pyridin-3-yl)methyl)-2-(1-methyl-1H-pyrazol-4-yl)quinoline-4-carbonitrile•TFA], in assay [1] (setting [3]), the IC50 was 1000 nM. In assay [1], the inhibition at 6 µM was 91%. For the same compound, the Kd in assay [2] was 6600 nM.

For `CC(=O)N1CCC(C(O)(c2cc(C)c3nc(C#N)c(Cc4ccc(-n5cccn5)cc4)c(C#N)c3c2)c2cncn2C)CC1` (single isomer, unassigned) [Example 81c, 3-(4-(1H-Pyrazol-1-yl)benzyl)-6-((1-acetylpiperidin-4-yl)(hydroxy)(1-methyl-1H-imidazol-5-yl)methyl)-8-methylquinoline-2,4-dicarbonitrile], the “RORγt … % inhibition @ 6 µM” value in assay [1] was determined as 97%. This compound also returned an IC50 in assay [1] (setting [3]) of 560 nM. In assay [2], the Kd was 49 nM.

`COc1nc2ccc(C(O)(c3cnnn3C)c3cnc(C)n3C)cc2c(Cl)c1Cc1ccc(C(F)(F)F)nc1` (single isomer, unassigned) [Example 43c, (4-Chloro-2-methoxy-3-((6-(trifluoromethyl)pyridin-3-yl)methyl)quinolin-6-yl)(1,2-dimethyl-1H-imidazol-5-yl)(1-methyl-1H-1,2,3-triazol-5-yl)methanol]: in assay [1] (6 µM), the “RORγt … % inhibition @ 6 µM” value was found to be 99%. Further, half-maximal inhibition in assay [1] (setting [3]) (IC50) was put at 5.3 nM. Besides, in assay [2], the equilibrium dissociation constant (Kd) is 0.96 nM.

For the compound `COc1nc2ccc(C(O)(c3ccc(C)nc3C)c3cnnn3C)cc2c(Cl)c1Cc1ccc(-n2cccn2)cc1` (single isomer, unassigned) [Example 17c, (3-(4-(1H-Pyrazol-1-yl)benzyl)-4-chloro-2-methoxyquinolin-6-yl)(2,6-dimethylpyridin-3-yl)(1-methyl-1H-1,2,3-triazol-5-yl)methanol], in assay [1] (6 µM), the “RORγt … % inhibition @ 6 µM” value is listed as 101%. This compound also registered a half-maximal inhibitory concentration (IC50) in assay [1] (setting [3]) of 9 nM. In assay [2], the Kd came out at 0.29 nM.

Regarding `COc1nc2ccc(C(O)(c3cc(C)nc(C)c3)c3cnnn3C)cc2c(Cl)c1Cc1ccc(C(F)(F)F)cc1` (single isomer, unassigned) [Example 84c, (4-Chloro-2-methoxy-3-(4-(trifluoromethyl)benzyl)quinolin-6-yl)(2,6-dimethylpyridin-4-yl)(1-methyl-1H-1,2,3-triazol-5-yl)methanol], the “RORγt … % inhibition @ 6 µM” value in assay [1] (6 µM) is on record as 100%. Half-maximal inhibition in assay [1] (setting [3]) (IC50) required 6 nM. Further, the Kd in assay [2] stood at 0.003 nM.

Consider `COc1nc2ccc(C(O)(c3ccccc3)C3CCN(C(C)=O)CC3)cc2c(Cl)c1Cc1ccc(-n2cncn2)cc1` (single isomer, unassigned) [Example 18c, 1-(4-((3-(4-(1H-1,2,4-Triazol-1-yl)benzyl)-4-chloro-2-methoxyquinolin-6-yl)(hydroxy)(phenyl)methyl)piperidin-1-yl)ethanone], for which, in assay [1] (6 µM), the “RORγt … % inhibition @ 6 µM” value stood at 91%. In assay [1] (setting [3]), this compound displayed an IC50 of 88 nM. In addition, the Kd in assay [2] was determined as 50 nM.

With `Cn1cncc1C(O)(c1ccc(C(F)(F)F)nc1)c1ccc2nc(-c3nccn3C)c(Cc3ccccc3)c(Cl)c2c1` (single isomer, unassigned) [Example 113b, (3-Benzyl-4-chloro-2-(1-methyl-1H-imidazol-2-yl)quinolin-6-yl)(1-methyl-1H-imidazol-5-yl)(6-(trifluoromethyl)pyridin-3-yl)methanol], in assay [1] (HEK293T cells), the IC50 is ~6000 nM and the inhibition at 6 µM came to 58%. Also, in assay [2], the Kd was 23000 nM.

Turning to `COc1nc2ccc(C(O)(c3ccc(C)nc3C)c3cnnn3C)cc2c(Cl)c1Cc1ccc(C)cc1` (stereo not drawn) [Example 20a, (4-Chloro-2-methoxy-3-(4-methylbenzyl)quinolin-6-yl)(2,6-dimethylpyridin-3-yl)(1-methyl-1H-1,2,3-triazol-5-yl)methanol], the IC50 in assay [1] (setting [3]) turned out to be 40 nM. Also, in assay [1], the inhibition at 6 µM turned out to be 91%. In addition, in assay [2], the Kd stood at 1.1 nM.

In the case of `Cc1cc(C(O)(c2ccc(Cl)cc2)c2cncn2C)cc2c(Cl)c(Cc3ccc(-n4cccn4)cc3)c(N3CCC3)nc12` (stereo not drawn) [Example 136a], in assay [1] (HEK293T cells), it took 140 nM to reach half-maximal inhibition (IC50) and the inhibition at 6 µM was found to be 94%. Besides, the Kd in assay [2] was found to be 150 nM.

Turning to `Cn1cncc1C(O)(c1ccc(C(F)(F)F)nc1)c1ccc2nc(-c3nccn3C)c(Cc3ccccc3)c(C#N)c2c1` (stereo not drawn) [Example 153, 3-Benzyl-6-(hydroxy(1-methyl-1H-imidazol-5-yl)(6-(trifluoromethyl)pyridin-3-yl)methyl)-2-(1-methyl-1H-imidazol-2-yl)quinoline-4-carbonitrile^.TFA], in assay [1] (HEK293T cells), the half-maximal inhibitory concentration (IC50) is > 6000 nM and the inhibition at 6 µM was determined as 44%. Also, the Kd in assay [2] amounted to 15000 nM.

As for `Cn1cncc1C(O)(c1ccc(C(F)(F)F)nc1)c1ccc2nc(N3CC(F)C3)c(Cc3ccc(-n4cccn4)cc3)c(Cl)c2c1` (single isomer, unassigned) [Example 147c, {4-Chloro-2-(3-fluoroazetidin-1-yl)-3-[4-(1H-pyrazol-1-yl)benzyl]quinolin-6-yl}(1-methyl-1H-imidazol-5-yl)[6-(trifluoromethyl)pyridin-3-yl]methanol], the “RORγt … % inhibition @ 6 µM” value in assay [1] (HEK293T cells, 6 µM) turned out to be 96%. In assay [1] (HEK293T cells), this compound had an IC50 of 52 nM. The Kd in assay [2] came to 5.2 nM.

Compound `COc1nc2ccc(C(O)(c3ccc(C)nc3C)c3cncn3C)cc2c(Cl)c1Cc1ccc(C(F)(F)F)cc1` (single isomer, unassigned) [Example 88b, (4-Chloro-2-methoxy-3-(4-(trifluoromethyl)benzyl)quinolin-6-yl)(2,6-dimethylpyridin-3-yl)(1-methyl-1H-imidazol-5-yl)methanol] yielded an IC50 in assay [1] (setting [3]) of 740 nM. The inhibition at 6 µM in assay [1] came out at 95%. The Kd in assay [2] came out at 480 nM.
